Laboratory results reported in patent US9549918B2, “Stabilized tacrolimus composition” (priority 2008, dated 2017).

experiment: Ability of stabilizing agents to dissolve in the melted PEG/Poloxamer vehicle; assay type: physicochemical; conditions: 0.5% w/w of substance mixed with PEG/Poloxamer at 80° C.

| Molecule | Physical state in vehicle |
| --- | --- |
| Oc1cccc2cccnc12 [8-hydroxychinoline 0.005%, ½SO4, ½H2O, 8-hydroxychinoline] | Not dissolved |
| N.N.O=C(O)CC(O)(CC(=O)O)C(=O)O [Citric acid, (NH4)2] | Not dissolved |
| N.N.N.O=C(O)CC(O)(CC(=O)O)C(=O)O [Citric acid, (NH4)3] | Not dissolved |
| O=C(O)CC(O)(CC(=O)O)C(=O)O [Citric acid, H2O] | Dissolved |
| O=C([O-])CC(O)(CC(=O)[O-])C(=O)[O-].[Na+].[Na+].[Na+] [Citric acid, Na3] | Not dissolved |
| O=C([O-])CC(O)(CC(=O)O)C(=O)O.[Na+] [Citric acid, Na] | Not dissolved |
| O=C(O)[C@H]1OC(O)[C@H](O)[C@@H](O)[C@@H]1O (stereo partly drawn) [D-Glucoronic acid] | Not dissolved |
| O=C([O-])CN(CCN(CC(=O)[O-])CC(=O)[O-])CC(=O)[O-].[Ca+2].[Na+].[Na+] [EDTA, Ca, Na2] | Not dissolved |
| O=C([O-])CN(CCN(CC(=O)[O-])CC(=O)O)CC(=O)[O-].[Na+].[Na+].[Na+] [EDTA, Na3] | Not dissolved |
| O.O.O=C([O-])CN(CCN(CC(=O)[O-])CC(=O)[O-])CC(=O)[O-].[Na+].[Na+].[Na+].[Na+] [EDTA, Na4, 2H2O] | Not dissolved |
| O=C(O)CN(CCN(CC(=O)O)CC(=O)O)CC(=O)O [Ethylene di-amine tetra acetic acid] | Not dissolved |
| O=C(O)C(=O)O [Oxalic acid, 2H2O] | Dissolved |
| O=C([O-])C(=O)[O-].[Ca+2] [Oxalic acid, Ca, xH2O] | Not dissolved |
| N.N.O=C(O)C(O)C(O)C(=O)O (stereo not shown) [Tartaric acid, (NH4)2] | Not dissolved |
| O.O=C([O-])C(O)C(O)C(=O)[O-].O=C([O-])C(O)C(O)C(=O)[O-].[K+].[K+].[K+].[K+] (stereo not shown) [Tartaric acid, K2, ½H2O] | Not dissolved |
| O=C([O-])C(O)C(O)C(=O)O.[K+] (stereo not shown) [Tartaric acid, K] | Not dissolved |
| O=C(O)C(O)C(O)C(=O)O (stereo not shown) [Tartaric acid] | Dissolved |
| O.O=C([O-])CN(CCN(CC(=O)[O-])CC(=O)[O-])CCN(CC(=O)[O-])CC(=O)[O-].[Ca+2].[Na+].[Na+].[Na+] [Triethyleneamine pentaacetic acid, Ca, Na3, H2O] | Not dissolved |
| EDTA, NH4, H2O | Not dissolved |

same assay, conditions: 0.5% w/w of substance mixed with PEG/Poloxamer at 80° C.; listed as citric acid

| Molecule | Physical state in vehicle |
| --- | --- |
| O=C(O)CC(O)(CC(=O)O)C(=O)O [Citric acid, H2O] | dissolved |

same assay, conditions: 0.5% w/w of substance mixed with PEG/Poloxamer at 80° C.; listed as oxalic acid

| Molecule | Physical state in vehicle |
| --- | --- |
| O=C(O)C(=O)O [Oxalic acid, 2H2O] | dissolved |

same assay, conditions: 0.5% w/w of substance mixed with PEG/Poloxamer at 80° C.; listed as tartaric acid

| Molecule | Physical state in vehicle |
| --- | --- |
| O=C(O)C(O)C(O)C(=O)O (stereo not shown) [Tartaric acid] | dissolved |
